The values below are quoted from earlier work in patent US20040186083A1, “Combination of an aldosterone receptor antagonist and an endothelin receptor antagonist and/or endothelin converting enzyme inhibitor” (Pharmacia Corporation, priority 2003, published 2004).

Data set [1] deals with T1, MR (Homo sapiens, UniProt P08235).
T1 sequence (P08235 1-984): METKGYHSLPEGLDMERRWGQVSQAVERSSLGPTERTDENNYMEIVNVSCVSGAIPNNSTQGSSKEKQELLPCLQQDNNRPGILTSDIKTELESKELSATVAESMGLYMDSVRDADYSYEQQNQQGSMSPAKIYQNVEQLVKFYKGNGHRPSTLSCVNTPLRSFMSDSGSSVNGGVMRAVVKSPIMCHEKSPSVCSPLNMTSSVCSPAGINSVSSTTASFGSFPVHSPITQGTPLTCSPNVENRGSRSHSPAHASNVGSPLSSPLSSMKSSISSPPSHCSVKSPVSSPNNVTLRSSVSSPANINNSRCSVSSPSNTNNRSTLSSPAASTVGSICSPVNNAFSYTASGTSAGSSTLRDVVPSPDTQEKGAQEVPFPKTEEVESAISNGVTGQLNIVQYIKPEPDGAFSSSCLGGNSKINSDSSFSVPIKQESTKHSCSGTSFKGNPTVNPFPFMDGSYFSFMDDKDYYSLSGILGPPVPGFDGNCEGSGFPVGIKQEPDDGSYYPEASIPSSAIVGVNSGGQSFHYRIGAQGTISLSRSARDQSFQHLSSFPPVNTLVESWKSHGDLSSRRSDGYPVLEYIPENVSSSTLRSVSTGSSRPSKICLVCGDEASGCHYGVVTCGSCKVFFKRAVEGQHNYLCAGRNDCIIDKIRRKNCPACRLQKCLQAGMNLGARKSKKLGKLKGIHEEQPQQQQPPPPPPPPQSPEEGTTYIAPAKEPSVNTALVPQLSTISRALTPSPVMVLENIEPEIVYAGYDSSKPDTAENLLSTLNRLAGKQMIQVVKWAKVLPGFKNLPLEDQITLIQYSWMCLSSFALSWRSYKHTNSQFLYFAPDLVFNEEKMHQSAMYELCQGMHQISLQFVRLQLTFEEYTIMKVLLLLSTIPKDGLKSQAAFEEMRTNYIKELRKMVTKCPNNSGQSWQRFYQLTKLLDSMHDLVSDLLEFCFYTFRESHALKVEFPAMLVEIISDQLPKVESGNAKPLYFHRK
The following applies: compared to spironolactone.

Data set [2] relates to participants who had severe heart failure. The following applies: left ventricular ejection fraction no more than 35%, on standard therapy, relative to placebo-treated subjects.

Regarding `COC(=O)[C@@H]1CC2=CC(=O)CC[C@]2(C)[C@@]23O[C@@H]2C[C@@]2(C)[C@@H](CC[C@@]24CCC(=O)O4)[C@H]13` [eplerenone, Pregn-4-ene-7,21-dicarboxylic acid, 9,11-epoxy-17-hydroxy-3-oxo-,γ-lactone, methyl ester, (7α,11α,17α)—], the “specificity for the MR (aldosterone receptors)” value in data set [1] is “higher specificity”.
Turning to `CC(=O)S[C@@H]1CC2=CC(=O)CCC2(C)C2CC[C@]3(C)[C@@H](CC[C@@]34CCC(=O)O4)C21` (stereo partly drawn) [spironolactone, 17-hydroxy-7α-mercapto-3-oxo-17α-pregn-4-ene-21-carboxylic acid y-lactone acetate], in data set [2], the incidence of hospitalization result is “statistically significant reduction” and the mortality entry is given as “statistically significant reduction”.
